This is an account of results in US20210322327A1, “EXTRACELLULAR VESICLES COMPRISING STING-AGONIST” (Codiak BioSciences, Inc., priority 2018, published 2021).

The subject of this assay is OVA-reactive splenic T-cells. As to the kind of experiment: OVA-specific memory T-cell response in E.G7-OVA model. The format is in vivo, C57BL/6 mice. Here is the method:
STING pathway agonism in dendritic cells enhances antigen presentation, IFNβ production, and recruits CD8+ memory T-cells to elicit a durable adaptive immune response. To determine whether Exo STING could induce a memory T-cell response to a defined antigen, an antigen-specific T-cell response study was carried out using purified ovalbumin (OVA). C57BL/6 mice were injected intraperitoneally with 200 μg OVA mixed with either PBS, 20 μg ML RR-S2, 0.2 μg ML RR-S2, or 0.2 μg ML RR-S2 loaded in PTGFRN-overexpressing exosomes (n=4-10 mice per group). […] Isolated lymphocytes were analyzed by flow cytometry by measuring binding to immobilized tetrameric MHC class I bound to the OVA peptide SIINFEKL and phycoerythrin (PE) (iTAg Tetramer/PE—H-2 OVA; MBL®, Code #T03000). OVA-reactive memory T-cells were quantified by gating on PE, CD44, and CD8 positivity.
To test this hypothesis, C57BL/6 mice were inoculated subcutaneously with 1×10^6 E.G7-OVA cells (ATCC®; CRL-2113™), a murine T-cell lymphoma cell line engineered to stably express OVA and allow for modeling antigen-specific T-cell responses in mice (n=5 mice per group). […] Splenic T-cells from all groups were isolated and measured for OVA-specific reactivity as described in Example 11.

Take `Nc1ncnc2c1ncn2[C@@H]1O[C@@H]2COP(O)(=S)O[C@@H]3C(O)[C@@H](COP(O)(=S)O[C@H]2[C@H]1O)O[C@H]3n1cnc2c(N)ncnc21` (some centres unmarked) [ML RR-S2 CDA]: the “memory T-cell response (OVA-specific)” value by setting is: (0.2 μg intratumoral) “modest memory T-cell response”; (20 μg intratumoral) “potent memory T-cell response”.
